Patent US9981023B2, “Compositions and methods for inducing immune tolerance” (The Scripps Research Institute, priority 2010, dated 2018)

Molecular target: T1, CD22 (Mus musculus, UniProt P35329)
T1 sequence (P35329 22-868): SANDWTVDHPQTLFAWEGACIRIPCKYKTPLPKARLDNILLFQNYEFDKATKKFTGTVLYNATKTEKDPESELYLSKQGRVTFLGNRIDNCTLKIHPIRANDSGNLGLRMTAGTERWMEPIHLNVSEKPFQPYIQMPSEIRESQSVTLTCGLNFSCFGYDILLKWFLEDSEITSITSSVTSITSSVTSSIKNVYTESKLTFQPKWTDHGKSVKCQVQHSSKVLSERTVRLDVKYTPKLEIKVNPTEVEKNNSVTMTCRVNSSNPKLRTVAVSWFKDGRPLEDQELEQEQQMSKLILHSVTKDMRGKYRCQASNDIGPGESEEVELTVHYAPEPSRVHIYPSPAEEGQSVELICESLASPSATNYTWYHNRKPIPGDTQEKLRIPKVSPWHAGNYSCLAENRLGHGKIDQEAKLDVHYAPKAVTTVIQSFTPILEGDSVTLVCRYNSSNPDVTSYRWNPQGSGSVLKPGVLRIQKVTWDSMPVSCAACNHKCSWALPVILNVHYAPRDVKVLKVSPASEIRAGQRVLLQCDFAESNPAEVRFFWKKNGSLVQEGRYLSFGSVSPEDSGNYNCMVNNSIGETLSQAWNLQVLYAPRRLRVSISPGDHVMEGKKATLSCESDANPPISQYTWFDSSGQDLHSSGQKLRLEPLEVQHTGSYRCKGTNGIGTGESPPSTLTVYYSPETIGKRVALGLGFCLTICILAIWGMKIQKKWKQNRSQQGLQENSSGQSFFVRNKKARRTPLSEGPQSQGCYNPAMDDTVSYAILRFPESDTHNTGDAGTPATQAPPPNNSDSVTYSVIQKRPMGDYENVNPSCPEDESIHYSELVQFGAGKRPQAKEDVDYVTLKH
Assay: Affinity of glycan ligand for CD22
Format: binding
Details: natural ligand of CD22 relative to ^BPANeuGc

- affinity lower than the ^BPANeuGc ligand: approximately 200 fold
Compound: CC(=O)NC1C(O)OC(CO)C(OC2OC(COC3(C(=O)O)CC(O)C(NC(=O)CO)C(C(O)C(O)CO)O3)C(O)C(O)C2O)C1O (stereo not shown) [NeuGcα2-6Galβ1-4GlcNAc]
